Source: patent US12398178B2, “Collections of peptides, peptide agents, and methods of use thereof” (Parabilis Medicines, Inc., priority 2018, dated 2025)
Starred links: 1 amine or outer side, 2 acyl side, 3 side chain; linkers in the order of their positions; H or OH if unused. Positions of bridges follow the written chain, without caps; N, C: chain ends. Residues, ends and D or L forms follow the SMILES beside them. Phenylene(1,4-NHCOCH2)2 = O=C(C[*:1])Nc1ccc(NC(=O)C[*:2])cc1; X5 = CN(C(=O)C[*:1])c1ccc(N(C)C(=O)C[*:2])cc1; X6 = O=C(C[*:1])Nc1cc(Cl)c(NC(=O)C[*:2])cc1Cl; X3 = O=C(C[*:1])Nc1ccccc1NC(=O)C[*:2]

Assay: Measurement of LogD (CHI logD by HPLC)
Type: physicochemical
Conditions: CHI log D, 50 mM ammonium acetate pH 7.4 / acetonitrile gradient, C-18 column, 25° C.
Description: Measurement of LogD: LogD values were measured on a Agilent 1260 HPLC with UV detector (254, 220 nm), using a Gemini NX C-18 50×3 mm column (Phenomenex) with a 6-minute 0-100% mobile phase gradient of A) 50 mM ammonium acetate pH 7.4 and B) Acetonitrile at 25° C. with a flow rate of 1 mL/min and injection volume of 3-5 uL.

Point of comparison: `CC(C)C[C@@H]1NC(=O)[C@H](C)NC(=O)[C@H](C)NC(=O)[C@H](Cc2c[nH]cn2)NC(=O)[C@H](CCC(=O)O)NC(=O)[C@@H](NC(=O)[C@H](CCC(N)=O)NC(=O)[C@H](Cc2c[nH]c3ccccc23)NC(=O)[C@@H]2CCCN2C(=O)[C@H](C)NC(=O)[C@@H]2CCCN2C(=O)[C@H](CC(=O)O)NC(=O)[C@H](C)N)CSCC(=O)Nc2ccc(cc2)NC(=O)CSC[C@@H](C(=O)N[C@@H](CCC(=O)O)C(=O)N[C@@H](CC(C)C)C(=O)N[C@@H](CCC(=O)O)C(N)=O)NC(=O)[C@H](CC(C)C)NC1=O` [Compound 11] (H-ADPAPWQCEHAALLCELE-NH2; linker 8-15 via Phenylene(1,4-NHCOCH2)2; N-terminus and C-terminus assumed), chromatographic logD 0.47. Against it:
- CC[C@H](C)[C@@H]1NC(=O)[C@H](CC(C)C)NC(=O)[C@H](C)NC(=O)[C@H](C)NC(=O)[C@H](Cc2c[nH]cn2)NC(=O)[C@H](CCC(=O)O)NC(=O)[C@@H](NC(=O)[C@H](CCC(=O)O)NC(=O)[C@H](Cc2c[nH]c3ccccc23)NC(=O)[C@H](CC(=O)O)NC(=O)[C@H](C)NC(=O)[C@@H]2CCCN2C(=O)[C@H](CC(=O)O)NC(=O)[C@H](C)N)CSCC(=O)Nc2ccc(cc2)NC(=O)CSC[C@@H](C(=O)N[C@@H](CC(=O)O)C(=O)N[C@@H](C)C(=O)N[C@@H](CCSC)C(N)=O)NC1=O [Compound 12] (H-ADPADWECEHAALICDAM-NH2; linker 8-15 via Phenylene(1,4-NHCOCH2)2; N-terminus and C-terminus assumed) — within 0.2 log units, 0.39
- CC[C@H](C)[C@@H]1NC(=O)[C@H](CC(C)C)NC(=O)[C@H](C)NC(=O)[C@H](C)NC(=O)[C@H](Cc2c[nH]cn2)NC(=O)[C@H](CCC(=O)O)NC(=O)[C@@H](NC(=O)[C@H](C)NC(=O)[C@H](Cc2c[nH]c3ccccc23)NC(=O)[C@H](CC(C)C)NC(=O)[C@H](C)NC(=O)[C@@H]2CCCN2C(=O)[C@H](CC(=O)O)NC(=O)[C@H](C)N)CSCC(=O)Nc2cc(Cl)c(cc2Cl)NC(=O)CSC[C@@H](C(=O)N[C@@H](CCC(=O)O)C(=O)N[C@H](C(=O)N[C@@H](CCC(N)=O)C(N)=O)[C@@H](C)O)NC1=O [Compound 42] (H-ADPALWACEHAALICETQ-NH2; linker 8-15 via X6; N-terminus and C-terminus assumed) — higher, 0.84
- CC(C)C[C@@H]1NC(=O)[C@H](C)NC(=O)[C@H](C)NC(=O)[C@H](Cc2c[nH]c3ccccc23)NC(=O)[C@H](CCC(=O)O)NC(=O)[C@@H](NC(=O)[C@H](CCCNC(=N)N)NC(=O)[C@H](Cc2c[nH]cn2)NC(=O)[C@@H](NC(=O)[C@H](C)NC(=O)[C@@H]2CCCN2C(=O)[C@H](CC(=O)O)NC(=O)[C@H](C)N)[C@@H](C)O)CSCC(=O)Nc2ccc(cc2)NC(=O)CSC[C@@H](C(=O)N[C@@H](CCC(=O)O)C(=O)N[C@@H](CC(C)C)C(=O)N[C@H](C(N)=O)C(C)C)NC(=O)[C@H](Cc2c[nH]cn2)NC1=O [Compound 1] — within 0.2 log units, 0.57
- CC[C@H](C)[C@@H]1NC(=O)[C@H](CC(C)C)NC(=O)[C@H](C)NC(=O)[C@H](C)NC(=O)[C@H](Cc2c[nH]cn2)NC(=O)[C@H](CCC(=O)O)NC(=O)[C@@H](NC(=O)[C@H](C)NC(=O)[C@H](Cc2c[nH]c3ccccc23)NC(=O)[C@H](CC(C)C)NC(=O)[C@H](C)NC(=O)[C@@H]2CCCN2C(=O)[C@H](CC(=O)O)NC(=O)[C@H](C)N)CSCC(=O)Nc2ccccc2NC(=O)CSC[C@@H](C(=O)N[C@@H](CCC(=O)O)C(=O)N[C@H](C(=O)N[C@@H](CCC(N)=O)C(N)=O)[C@@H](C)O)NC1=O [Compound 44] (H-ADPALWACEHAALICETQ-NH2; linker 8-15 via X3; N-terminus and C-terminus assumed) — higher, 0.7
- CC[C@H](C)[C@@H]1NC(=O)[C@H](CC(C)C)NC(=O)[C@H](C)NC(=O)[C@H](C)NC(=O)[C@H](Cc2c[nH]cn2)NC(=O)[C@H](CCC(=O)O)NC(=O)[C@@H](NC(=O)[C@H](C)NC(=O)[C@H](Cc2c[nH]c3ccccc23)NC(=O)[C@H](CC(C)C)NC(=O)[C@H](C)NC(=O)[C@@H]2CCCN2C(=O)[C@H](CC(=O)O)NC(=O)[C@H](C)N)CSCC(=O)N(C)c2ccc(cc2)N(C)C(=O)CSC[C@@H](C(=O)N[C@@H](CCC(=O)O)C(=O)N[C@H](C(=O)N[C@@H](CCC(N)=O)C(N)=O)[C@@H](C)O)NC1=O [Compound 40] (H-ADPALWACEHAALICETQ-NH2; linker 8-15 via X5; N-terminus and C-terminus assumed) — higher, 0.73
- CC[C@H](C)[C@@H]1NC(=O)[C@@H](NC(=O)[C@H](CCC(=O)O)NC(=O)[C@H](CC(=O)O)NC(=O)[C@H](CCC(=O)O)NC(=O)[C@H](C)NC(=O)[C@@H]2CCCN2C(=O)[C@H](CC(=O)O)NC(=O)[C@H](C)N)CSCC(=O)Nc2ccc(cc2)NC(=O)CSC[C@@H](C(=O)N[C@@H](CCCNC(=N)N)C(=O)N[C@@H](Cc2c[nH]c3ccccc23)C(=O)N[C@@H](Cc2c[nH]c3ccccc23)C(N)=O)NC(=O)[C@H](CCSC)NC(=O)[C@H](Cc2c[nH]cn2)NC(=O)[C@H](C)NC(=O)[C@H](C)NC(=O)[C@H](CC(C)C)NC1=O [Compound 8] (H-ADPAEDECILAAHMCRWW-NH2; linker 8-15 via Phenylene(1,4-NHCOCH2)2; N-terminus and C-terminus assumed) — higher, 0.92
- CC[C@H](C)[C@@H]1NC(=O)[C@@H](NC(=O)[C@H](CC(=O)O)NC(=O)[C@H](CCC(=O)O)NC(=O)[C@H](CC(=O)O)NC(=O)[C@H](C)NC(=O)[C@@H]2CCCN2C(=O)[C@H](CC(=O)O)NC(=O)[C@H](C)N)CSCC(=O)Nc2ccc(cc2)NC(=O)CSC[C@@H](C(=O)N[C@@H](CCC(N)=O)C(=O)N[C@@H](Cc2c[nH]c3ccccc23)C(=O)N[C@@H](CC(=O)O)C(N)=O)NC(=O)[C@H]([C@@H](C)CC)NC(=O)[C@H](Cc2c[nH]cn2)NC(=O)[C@H](C)NC(=O)[C@H](C)NC(=O)[C@H](CC(C)C)NC1=O [Compound 9] (H-ADPADEDCILAAHICQWD-NH2; linker 8-15 via Phenylene(1,4-NHCOCH2)2; N-terminus and C-terminus assumed) — within 0.2 log units, 0.29
